What was measured:
Assay type in all cases: in vivo
Hartley guinea pigs [1] = test: Skin irritation test (24 hours' closed patch test)
Excerpt: Skin irritation tests of benzyl ursolate, methoxybenzyl oleanolate, nitrobenzyl betulate, naphthylmethyl ursolate, diphenylmethyl oleanolate, benzoyl oleanolate, methoxybenzoyl betulate, and phenylpropionyl ursolate obtained in the above-described Production Examples were made using Hartley guinea pigs (300 to 500 g, female) as test animals.
For test groups each consisting of 6 guinea pigs, the hair on the back of each guinea pig was removed or shaven and on the hair-removed or shaven portion was applied a plastic adhesive plaster which a cloth patch of 15 mm in diameter impregnated with 50 mg of white vaseline containing a 10% by weight of one of the aromatic compound derivatives of triterpenoid obtained in the Production Examples described above was attached, and then 24 hours' closed patch test was performed. After the closed patch tests were completed, the resulting skin reactions after the removal of the plastic adhesive plasters were evaluated immediately (after 0 hour) and after 24 hours respectively, according to the evaluation criteria below and an average score was calculated based on the results obtained 6 animals in each test group.
(§1) 0: No skin reaction being observed
(§2) 1: Weak or unclearly bordered erythema
(§3) 3: Reaction accompanying edema
(§4) 4: Reaction of ulcer, necrosis, or the like
As a control, the above-described test and evaluation were conducted with only white vaseline.

Hartley guinea pigs [2] = test: Allergy test (maximization method); settings: skin reaction 24 hours after patch removal, scale 0-4
Excerpt: Allergy tests of benzyl ursolate, methoxybenzyl oleanolate, phenylbenzyl betulate, benzoyl oleanolate, methoxybenzoyl betulate, and phenylpropionyl ursolate obtained in the above-described Production Examples were made using Hartley guinea pigs (300 to 500 g, female) as test animals.
For test groups each consisting of 6 guinea pigs were applied each an aromatic compound derivative of triterpenoid to a concentration of 3 w/v % in olive oil, an aromatic compound derivative of triterpenoid to a concentration of 0.3 w/v % in olive oil, and neat olive oil, respectively, by a maximization method to perform sensitization induction.
Thereafter, in order to induce sufficient immunoresponse, after a grace period of 10 days from the day when the final sensitization was made, there was applied to the back skin of each guinea pig a patch plate having 1.5 cm diameter coated with 100 μl of an aromatic compound derivative of triterpenoid to a concentration of 3 w/v % in olive oil, an aromatic compound derivative of triterpenoid to a concentration of 0.3 w/v % in olive oil, or neat olive oil, and the patch plate was removed after 24 hours. The resulting skin reaction after 24 hours from the removal of the patch plate was evaluated according to the following evaluation criteria and an average score was calculated for each test group.
as §1, §2, §3, §4

[3] = test system: wrinkles on the back skin due to photoaging, hairless mice; test: UV wrinkle model amelioration test; settings: 9 weeks, 10 mice; for Number of Mice (number) +: +: Wrinkle-ameliorating effect was observed; for Number of Mice (number) ±: ±: Slight wrinkle-ameliorating effect; for Number of Mice (number) −: −: No wrinkle-ameliorating effect
Description: UV wrinkle model amelioration tests were conducted with the benzyl ursolate, methoxybenzyl oleanolate, phenylbenzyl betulate, benzoyl oleanolate, methoxybenzoyl betulate, and phenylpropionyl ursolate obtained in the above described Production Examples on hairless mice (5-week old, female) as test animals.
UVB (60 mJ/cm^2) was irradiated to the back skin of each animal of a test group consisting of 10 hairless mice once a day in a frequency of 5 days a week and after 8 weeks formation of wrinkles on the back skin due to photoaging was confirmed. Thereafter, 100 μl of ethanol solutions containing the aromatic compound derivatives of triterpenoid obtained in the Production Examples in concentrations shown in Table 3 were applied thereon once a day in a frequency of 5 days a week. After 9 weeks from the initiation of applying, the degree of ameliorating wrinkles in the skin due to photoaging were evaluated with naked eyes according to the following evaluation criteria.
−: No wrinkle-ameliorating effect was observed.
±: Slight wrinkle-ameliorating effect was observed.
+: Wrinkle-ameliorating effect was observed.
For comparison, ethanol solutions containing of palmitoyl oleanolate or 2-ethylhexyl 2-ethylhexanoyl ursolate in 1% concentration, hitherto used as drugs having a photoaging inhibiting effect, and neat ethanol as a control were applied to hairless mice after UVB irradiation in the same manner as described above and wrinkle-ameliorating effects were evaluated, respectively.

[4] = skin reaction 24 hours after plaster removal, 10% by weight in white vaseline, 24 hours' closed patch, average of 6 guinea pigs, scale 0-4
[5] = skin reaction immediately after plaster removal, 10% by weight in white vaseline, 24 hours' closed patch, average of 6 guinea pigs, scale 0-4
[6] = 3%-challenge patch, 3 w/v % in olive oil

| Molecule | Score (Average) After 24 hours (Hartley guinea pigs [1]; [4]) | Score (Average) After 0 hour (Hartley guinea pigs [1]; [5]) | Evaluation Score (Average), 3%-induced group (Hartley guinea pigs [2]; 0.3%-challenge patch) | Evaluation Score (Average), Olive oil induced group (Hartley guinea pigs [2]; 0.3%-challenge patch) | Evaluation Score (Average), 0.3%-induced group (Hartley guinea pigs [2]; 0.3%-sensitized group) | Evaluation Score (Average), 3%-induced group (Hartley guinea pigs [2]; [6]) | Evaluation Score (Average), Olive oil induced group (Hartley guinea pigs [2]; 3%-challenge patch) | Evaluation Score (Average), 0.3%-induced group (Hartley guinea pigs [2]; 3%-sensitized group) | Evaluation Score (Average), 3%-induced group (Hartley guinea pigs [2]; Olive oil-challenge patch) | Evaluation Score (Average), 0.3%-induced group (Hartley guinea pigs [2]; Olive oil-sensitized group) | other results |
| --- | --- | --- | --- | --- | --- | --- | --- | --- | --- | --- | --- |
| C[C@H]1[C@H](C)CC[C@]2(C(=O)O)CC[C@]3(C)C(=CC[C@@H]4[C@@]5(C)CC[C@H](OC(=O)CCc6ccccc6)C(C)(C)[C@@H]5CC[C@]43C)[C@H]12 [Phenylpropionyl ursolate, phenylpropionyl ursolate] | 0 | 0 | 0.17 | 0 | 0 | 0 | 0 | 0 | 0 | 0 | Number of Mice (number) + ([3]; 0.05 w/v% in ethanol): 7 number; Number of Mice (number) ± ([3]; 0.05 w/v% in ethanol): 3 number; Number of Mice (number) − ([3]; 0.05 w/v% in ethanol): 0 number |
| C=C(C)C1CCC2(C(=O)OCc3ccc(-c4ccccc4)cc3)CCC3(C)C(CCC4C5(C)CCC(O)C(C)(C)C5CCC43C)C12 (stereo not drawn) [Phenylbenzyl betulate, phenylbenzyl betulate] |  |  |  |  |  |  |  |  |  |  | Number of Mice (number) + ([3]; 0.05 w/v% in ethanol): 8 number; Number of Mice (number) ± ([3]; 0.05 w/v% in ethanol): 2 number; Number of Mice (number) − ([3]; 0.05 w/v% in ethanol): 0 number |
| CC1(C)CC[C@]2(C(=O)OC(c3ccccc3)c3ccccc3)CC[C@]3(C)C(=CC[C@@H]4[C@@]5(C)CC[C@H](O)C(C)(C)[C@@H]5CC[C@]43C)[C@@H]2C1 [Diphenylmethyl oleanolate, diphenylmethyl oleanolate] | 0 | 0 |  |  |  |  |  |  |  |  |  |
| COc1ccc(COC(=O)[C@]23CCC(C)(C)C[C@H]2C2=CC[C@@H]4[C@@]5(C)CC[C@H](O)C(C)(C)[C@@H]5CC[C@@]4(C)[C@]2(C)CC3)cc1 [Methoxybenzyl oleanolate, methoxybenzyl oleanolate] | 0 | 0 | 0 | 0.17 | 0 | 0.33 | 0.17 | 0 | 0.17 | 0.17 | Number of Mice (number) + ([3]; 0.01 w/v% in ethanol): 7 number; Number of Mice (number) ± ([3]; 0.01 w/v% in ethanol): 3 number; Number of Mice (number) − ([3]; 0.01 w/v% in ethanol): 0 number |
| CC1(C)CC[C@]2(C(=O)O)CC[C@]3(C)C(=CC[C@@H]4[C@@]5(C)CC[C@H](OC(=O)c6ccccc6)C(C)(C)[C@@H]5CC[C@]43C)[C@@H]2C1 [Benzoyl oleanolate, benzoyl oleanolate] | 0 | 0 | 0 | 0 | 0 | 0 | 0 | 0 | 0 | 0 | Number of Mice (number) + ([3]; 0.01 w/v% in ethanol): 6 number; Number of Mice (number) ± ([3]; 0.01 w/v% in ethanol): 4 number; Number of Mice (number) − ([3]; 0.01 w/v% in ethanol): 0 number |
| C=C(C)C1CCC2(C(=O)OCc3ccc([N+](=O)[O-])cc3)CCC3(C)C(CCC4C5(C)CCC(O)C(C)(C)C5CCC43C)C12 (stereo not drawn) [Nitrobenzyl betulate, nitrobenzyl betulate] |  |  |  |  |  |  |  |  |  |  | Score (Average) After 0 hour (Hartley guinea pigs [1]; guinea pig, in vivo): 0; Score (Average) After 24 hours (Hartley guinea pigs [1]; guinea pig, in vivo): 0 |
| CCCCC(CC)COC(=O)[C@]12CC[C@@H](C)[C@H](C)[C@H]1C1=CC[C@@H]3[C@@]4(C)CC[C@H](OC(=O)C(CC)CCCC)C(C)(C)[C@@H]4CC[C@@]3(C)[C@]1(C)CC2 (stereo partly drawn) [2-Ethylhexyl 2-ethylhexanoyl ursolate, 2-ethylhexyl 2-ethylhexanoyl ursolate, reference compound] |  |  |  |  |  |  |  |  |  |  | Number of Mice (number) + ([3]; 1.0 w/v% in ethanol): 6 number; Number of Mice (number) ± ([3]; 1.0 w/v% in ethanol): 4 number; Number of Mice (number) − ([3]; 1.0 w/v% in ethanol): 0 number |
| C=C(C)C1CCC2(C(=O)O)CCC3(C)C(CCC4C5(C)CCC(OC(=O)c6ccc(OC)cc6)C(C)(C)C5CCC43C)C12 (stereo not drawn) [Methoxybenzoyl betulate, methoxybenzoyl betulate] |  |  |  |  |  |  |  |  |  |  | Score (Average) After 0 hour (Hartley guinea pigs [1]; guinea pig, in vivo): 0; Score (Average) After 24 hours (Hartley guinea pigs [1]; guinea pig, in vivo): 0; Number of Mice (number) + ([3]; 0.01 w/v% in ethanol): 8 number; Number of Mice (number) ± ([3]; 0.01 w/v% in ethanol): 2 number; Number of Mice (number) − ([3]; 0.01 w/v% in ethanol): 0 number |
| C[C@H]1[C@H](C)CC[C@]2(C(=O)OCc3ccccc3)CC[C@]3(C)C(=CC[C@@H]4[C@@]5(C)CC[C@H](O)C(C)(C)[C@@H]5CC[C@]43C)[C@H]12 [Benzyl ursolate, benzyl ursolate] | 0 | 0 | 0 | 0 | 0.17 | 0.17 | 0.33 | 0 | 0 | 0 | Number of Mice (number) + ([3]; 0.005 w/v% in ethanol, 100 μl once a day 5 days a week): 9 number; Number of Mice (number) ± ([3]; 0.005 w/v% in ethanol): 1 number; Number of Mice (number) − ([3]; 0.005 w/v% in ethanol): 0 number |
| naphthylmethyl ursolate | 0 | 0 |  |  |  |  |  |  |  |  |  |
| CCCCCCCCCCCCCCCC(=O)OC1CCC2(C)C(CCC3(C)C2CC=C2C4CC(C)(C)CCC4(C(=O)O)CCC23C)C1(C)C (stereo not drawn) [Palmitoyl oleanolate, palmitoyl oleanolate, reference compound] |  |  |  |  |  |  |  |  |  |  | Number of Mice (number) + ([3]; 1.0 w/v% in ethanol): 7 number; Number of Mice (number) ± ([3]; 1.0 w/v% in ethanol): 3 number; Number of Mice (number) − ([3]; 1.0 w/v% in ethanol): 0 number |

Source: patent US6338854B1, “Photoaging skin-care preparation and method of treating wrinkled skin” (Pola Chemical Industries, Inc., priority 1996, dated 2002)
